Like-named read-outs stand apart in the source and are kept apart here.

The test system of series [1] is HeLa cells. The conditions noted are these: 100 μg/mL. As to the method:
As a model to examine the efficacy of 5-aminolevulinic acid-conjugated upconverting particles as described herein, particles prepared as described herein (having an 80 mol % Yb content), a 3-(4,5-dimethylthiazol-2-yl)-2,5-diphenyltetrazolium bromide (MTT) proliferation assay was conducted to determine inhibition of cell proliferation using photodynamic therapy with the nanoparticles prepared as described herein. In the cell proliferation assay, HeLa cells were exposed to 5-aminolevulinic acid-conjugated upconverting particles and various controls (all 100 μg/mL) for 4 h and the cells were then irradiated by irradiation of continuous wave 980 nm light at 1 W/cm^2. The results of the assay are shown in FIG. 8, which depicts cell viability as a function of irradiation time.
Then, impact of the lanthanide-doped upconverting nanoparticles on 5-ALA-induced photodynamic therapy was evaluated. […] Cells exposed to these control nanoparticles were irradiated at a biocompatible low power density of 0.35 W/cm^2.
A 96-well microtiter plate seeded with 1×10^4 HeLa cells/well was incubated overnight at 37° C. with 5% CO2. Cells were subsequently exposed to (i) 5-aminolevulinic acid functionalized upconverting nanoparticles comprising 80 mol % ytterbium (ALA-UCNPs, 100 μg/mL), (ii) hydrazide functionalized upconverting nanoparticles (no 5-ALA) (Hyd-UCNPs, 100 μg/mL), (iii) free 5-aminolevulinic acid (ALA, 100 μg/mL) or (iv) PBS (growth medium control) and then irradiated with CW 980 nm laser diode at 1 W/cm^2 for 0, 5, 10, or 20 min. After overnight incubation, cells were labeled with 12 mM solution of MTT in PBS for 4 h. Finally, the media was aspirated and replaced with 50 μL DMSO and cell viability was quantified by formazan absorption determined by a plate reader at 540 nm.
FIG. 8: Plots showing the viability of HeLa cells irradiated with CW 980 nm light at 1 W/cm^2 power density.
FIG. 9: Plots showing the viability of HeLa cells irradiated with CW 980 nm light at 0.35 W/cm^2 power density. […]

Series [2] concerns HeLa cells. The series can be described thus: Simulated deep-tissue photodynamic therapy, MTT assay with pork tissue between laser and cells. As to conditions: 100 μg/mL; for cell viability: CW 980 nm 1 W/cm^2, 20 min. It counts as cell-based. As to the method:
Photodynamic therapy of a deep-set tumor condition using the 5-aminolevulinic acid conjugated upconverting nanoparticles with an 80% ytterbium ratio was simulated by placing pieces of pork tissue of varying thickness (representing a patient's flesh) between a near infra-red laser and HeLa cells exposed to the upconverting nanoparticles, as shown in FIG. 12(a). The cells were analyzed for cell viability using an MTT assay. After 20 min. of irradiation at 1 W/cm^2, for all pork thicknesses, the cells exposed the 5-aminolevulinic acid conjugated nanoparticles as disclosed herein had cell viabilities that were reduced significant to the control hydrazide-functionalized upconverting nanoparticles (Hyd-UCNPs). In the absence of pork (0 mm), cell viability was less than 20%, in the presence of 6 mm pork, cell viability was less than 50%, and even with 12 mm pork, cell viability was still reduced to below 80% compared to the control. This establishes and validates the feasibility of using upconverting nanoparticles as a near infra-red-to-red transducer for prodrug photodynamic therapy at a deep-tissue level (up to about 1 cm or greater).
Finally, the red-emitting upconverting nanoparticle system containing an ytterbium ratio of 80% was compared with the known upconverting nanoparticle β/β core/shell red-emitting nanoparticles at a deep tissue level with a biocompatible low power density 0.35 W/cm^2 for laser irradiation. […] The 5-aminolevulinic acid conjugated nanoparticles described herein having an ytterbium ratio of 80% achieved 40% cell death even through 1.2 cm of pork. The ability of the presently-disclosed lanthanide-doped upconverting nanoparticles' to induce significant phototherapeutic effect with such low power excitation yet thick superficial tissue makes it a major step forward in photodynamic therapy materials.
FIGS. 12(a) and 12(b): FIG. 12(a) Photograph of the setup for simulated photodynamic therapy using an in vitro MTT assay. FIG. 12(b): Plots of HeLa cell viability for cells covered with 0, 6, and 12 mm pork tissue on top of the cells and irradiated with CW 980 nm light at a 1 W/cm^2 power density for 20 min.
FIG. 13: Plots of HeLa cell viability for cells covered with 0, 6, and 12 mm pork tissue on top of the cells and irradiated with CW 980 nm light at a 0.35 W/cm^2 power density for 20 min.

Series [3] deals with singlet oxygen production in HeLa cells. The series can be described thus: Singlet oxygen detection by DCFDA fluorescence (imaging and plate reader). As to conditions: 100 μg/mL, CW 980 nm 1 W/cm^2, 0, 5, 10 min irradiation. Format: cell-based. From the text: To investigate the mechanism of the results from the above mentioned experiments, cells were stained with 2′,7′-dichlorofluorescein diacetate (DCFDA), a fluorescent indicator for singlet oxygen generation, and imaged using fluorescence microscopy. When DCFDA diffuses into the cell it is […] into a non-fluorescent compound by cellular esterases. Reactive oxygen species (ROS) oxidize the non-fluorescent compound to 2′, 7′-dichlorofluorescein (DCF), which has bright green fluorescence. […] See images (a), (b) and (c) of FIG. 10. […] See images (d), (e) and (f) of FIG. 10. The data were corroborated by quantifying the singlet oxygen production by measuring the fluorescence intensity of the DCFDA using 96-well microtiter plate reader. Both DCFDA fluorescence imaging and microtiter plate measurement indicate effective prodrug delivery and subsequent PpIX activation by the red-emitting upconverting nanoparticles provided by the present disclosure.
Glass-bottom confocal dishes seeded with 1×10^6 HeLa cells were incubated overnight at 37° C. with 5% CO2. […]
FIGS. 10(a), 10(b), 10(c), 10(d), 10(e) and 10(f). Fluorescence microscopy images showing detection of singlet oxygen production in cells by the fluorescence of DCFDA.

Turning to “α-NaYF4:Yb(80%),Er(2%)@CaF2 ALA [ALA-UCNPs]”, in the series on HeLa cells [1] (4 h exposure, CW 980 nm 1 W/cm^2, 10 min irradiation), the viability of cells entry is “about 30%”. In addition, the cell death entry in the series on HeLa cells [1] (CW 980 nm 0.35 W/cm^2, 20 min irradiation) was “more than 60%”; in the series on HeLa cells [2] (through 1.2 cm of pork, CW 980 nm 0.35 W/cm^2, 20 min) it was 40%. This substance gave a killing rate with HeLa cells [1] (CW 980 nm 1 W/cm^2, 10 min irradiation) of roughly 70%. Besides, the cell viability result is “less than 50%” in the series with HeLa cells [2] (6 mm pork); “below 80%” in the series with HeLa cells [2] (12 mm pork, compared to the control); “less than 20%” with HeLa cells [2] (absence of pork (0 mm)). The “DCFDA fluorescence (singlet oxygen generation)” value in series [3] was “intensifying DCFDA fluorescence over irradiation time”.

Source of the values: US9956426B2, “Upconverting nanoparticles” (priority 2015, dated 2018).
